Biological target: T1, GST-FAK (N-terminal GST fusion with truncated human FAK (376-1052 (end) amino acids)) (Homo sapiens, UniProt Q05397)
T1 construct: truncated human FAK (376-1052 (end) amino acids)
Test: Biochemical enzyme assay for FAK activity (Caliper LC3000 mobility shift)
Details: Table 1; 100 uM ATP; read-out: FAK IC50
Method: 1. Biochemical Enzyme Assays for FAK Activity
The FAK assays described here are performed on two Caliper Life Sciences systems, the LC3000 and the EZ Reader II. These provide data on enzyme activity via measurement of the relative amounts of phosphorylated or unphosphorylated fluorescently labelled substrate peptide at the end of an enzymatic reaction. These different states of peptide are resolved by applying a potential difference across the sample. The presence of the charged phosphate group on the product (as opposed to the substrate) causes different peptide mobility between the two peptides. This is visualized by excitation of the fluorescent label on the substrate and product peptides and represented as peaks within the analysis software.
In order to measure inhibitor activity of FAK, inhibitors in the Caliper Life Sciences LC3000, a TTP Mosquito liquid handling instrument is used to place 0.25 ul of the appropriate concentration of inhibitor in 100% DMSO (for a dose response curve calculation) into each well of a 384-well plate. To this reaction components are added to a final volume of 25 ul: • 0.067 ng/ul GST-FAK (N-terminal GST fusion with truncated human FAK (376-1052 (end) amino acids)) • 100 uM ATP • 1 mM DTT • 1 mM MgCl2 • 1 uM substrate peptide (sequence FITC-KGWMEDYDYVHLQGKK-(CONH2)SEQ ID NO: 1)) • 1 mM FERM peptide (sequence NH2-GATQSFIIR-COOH (SEQ ID NO: 2)) • 100 mM HEPES pH 7.5 • 0.015% Brij-35
The reaction is incubated for 90 min at 25 C, and then stopped by the addition of 70 ul of Stop buffer (100 mM HEPES pH 7.5, 0.015% Brij-35, 10 mM EDTA).
The plate is read on a Caliper LC 3000 in an Off-Chip mobility shift assay format, using the following parameters for a 12-sipper chip: screening pressure—1.9 psi, upstream voltage—3000, downstream voltage—700. These conditions cause unphosphorylated substrate and phosphorylated product peptide to resolve as separate peaks allowing direct measurement of percentage of conversion of substrate to product. The percent conversion can be plotted against concentration of inhibitor to produce a sigmoid dose response curve, from which an IC50 can be calculated using XLFit for Microsoft Excel.

T1 sequence (Q05397 376-1052): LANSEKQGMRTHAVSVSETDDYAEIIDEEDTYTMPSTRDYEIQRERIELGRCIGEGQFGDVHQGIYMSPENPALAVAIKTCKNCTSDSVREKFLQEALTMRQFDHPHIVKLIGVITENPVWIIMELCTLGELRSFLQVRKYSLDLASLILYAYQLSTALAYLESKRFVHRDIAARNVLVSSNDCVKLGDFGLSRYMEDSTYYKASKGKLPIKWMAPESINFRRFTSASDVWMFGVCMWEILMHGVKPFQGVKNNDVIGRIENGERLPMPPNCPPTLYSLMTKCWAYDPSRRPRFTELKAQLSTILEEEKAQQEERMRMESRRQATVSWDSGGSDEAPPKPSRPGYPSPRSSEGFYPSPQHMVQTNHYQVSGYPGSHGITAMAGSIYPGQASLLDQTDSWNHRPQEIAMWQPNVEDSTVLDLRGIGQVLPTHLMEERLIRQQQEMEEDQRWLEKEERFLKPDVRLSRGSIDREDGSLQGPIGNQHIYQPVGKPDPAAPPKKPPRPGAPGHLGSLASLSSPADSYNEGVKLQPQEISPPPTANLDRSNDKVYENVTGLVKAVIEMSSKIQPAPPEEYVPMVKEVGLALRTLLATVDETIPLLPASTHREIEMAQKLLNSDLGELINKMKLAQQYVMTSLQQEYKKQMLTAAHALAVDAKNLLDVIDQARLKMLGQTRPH

| IC50 | Compound |
| --- | --- |
| 1 to 10 µM | COc1cncc(-c2nccc(NCc3ccc(OC)c(F)c3F)n2)c1 [Compound 1, (2,3-Difluoro-4-methoxy-benzyl)-[2-(5-methoxy-pyridin-3-yl)-pyrimidin-4-yl]-amine] |
| > 10 µM | COc1cncc(-c2nccc(NCc3ccc(Oc4ccc(F)cc4)cc3)n2)c1 [Compound 2, [4-(4-Fluoro-phenoxy)-benzyl]-[2-(5-methoxy-pyridin-3-yl)-pyrimidin-4-yl]-amine] |
| > 10 µM | COc1cncc(-c2nccc(NCc3cccc(Oc4cnccn4)c3)n2)c1 [Compound 3, [2-(5-Methoxy-pyridin-3-yl)-pyrimidin-4-yl]-[3-(pyrazin-2-yloxy)-benzyl]-amine] |
| > 10 µM | COc1cncc(-c2nccc(NCc3ccc(N4CCOCC4)cc3)n2)c1 [Compound 4, [2-(5-Methoxy-pyridin-3-yl)-pyrimidin-4-yl]-(4-morpholin-4-yl-benzyl)-amine] |
| 1 to 10 µM | COc1cncc(-c2nccc(NCc3cccc(-n4cccn4)c3)n2)c1 [Compound 5, [2-(5-Methoxy-pyridin-3-yl)-pyrimidin-4-yl]-(3-pyrazol-1-yl-benzyl)-amine] |
| > 10 µM | COc1cncc(-c2nccc(NCc3ccc4c(c3)OCCO4)n2)c1 [Compound 6, (2,3-Dihydro-benzo[1,4]dioxin-6-ylmethyl)-[2-(5-methoxy-pyridin-3-yl)-pyrimidin-4-yl]-amine] |
| > 10 µM | Fc1ccc(Oc2ccc(CNc3ccnc(-c4cncc(F)c4)n3)cc2)cc1 [Compound 7, [4-(4-Fluoro-phenoxy)-benzyl]-[2-(5-fluoro-pyridin-3-yl)-pyrimidin-4-yl]-amine] |
| > 10 µM | CC1(C)Cc2cccc(CNc3ccnc(-c4cncc(F)c4)n3)c2O1 [Compound 8, (2,2-Dimethyl-2,3-dihydro-benzofuran-7-ylmethyl)-[2-(5-fluoro-pyridin-3-yl)-pyrimidin-4-yl]-amine] |
| > 10 µM | Fc1cncc(-c2nccc(NCc3cccc(Oc4cnccn4)c3)n2)c1 [Compound 9, [2-(5-Fluoro-pyridin-3-yl)-pyrimidin-4-yl]-[3-(pyrazin-2-yloxy)-benzyl]-amine] |
| > 10 µM | Fc1cncc(-c2nccc(NCc3ccc(N4CCOCC4)cc3)n2)c1 [Compound 10, [2-(5-Fluoro-pyridin-3-yl)-pyrimidin-4-yl]-(4-morpholin-4-yl-benzyl)-amine] |
| > 10 µM | Fc1cncc(-c2nccc(NCc3cccc(-n4cccn4)c3)n2)c1 [Compound 11, [2-(5-Fluoro-pyridin-3-yl)-pyrimidin-4-yl]-(3-pyrazol-1-yl-benzyl)-amine] |
| > 10 µM | Fc1cncc(-c2nccc(NCc3ccc4c(c3)OCCO4)n2)c1 [Compound 12, (2,3-Dihydro-benzo[1,4]dioxin-6-ylmethyl)-[2-(5-fluoro-pyridin-3-yl)-pyrimidin-4-yl]-amine] |
| > 10 µM | O=C(c1cncc(-c2nccc(NCc3ccc(Oc4ccc(F)cc4)cc3)n2)c1)N1CCOCC1 [Compound 13, (5-{4-[4-(4-Fluoro-phenoxy)-benzylamino]-pyrimidin-2-yl}-pyridin-3-yl)-morpholin-4-yl-methanone] |
| > 10 µM | O=C(c1cncc(-c2nccc(NCc3ccc(N4CCOCC4)cc3)n2)c1)N1CCOCC1 [Compound 14, Morpholin-4-yl-{5-[4-(4-morpholin-4-yl-benzylamino)-pyrimidin-2-yl]-pyridin-3-yl}-methanone] |
| > 10 µM | O=C(c1cncc(-c2nccc(NCc3ccc4c(c3)OCCO4)n2)c1)N1CCOCC1 [Compound 15, (5-{4-[(2,3-Dihydro-benzo[1,4]dioxin-6-ylmethyl)-amino]-pyrimidin-2-yl}-pyridin-3-yl)-morpholin-4-yl-methanone] |
| 0.1 to 1 µM | COc1cncc(-c2nccc(NCc3ccc(Cl)cc3F)n2)c1 [Compound 16, (4-Chloro-2-fluoro-benzyl)-[2-(5-methoxy-pyridin-3-yl)-pyrimidin-4-yl]-amine] |
| > 10 µM | COc1cncc(-c2nccc(NCc3cccc4c3OC(C)(C)C4)n2)c1 [Compound 17, (2,2-Dimethyl-2,3-dihydro-benzofuran-7-ylmethyl)-[2-(5-methoxy-pyridin-3-yl)-pyrimidin-4-yl]-amine] |
| > 10 µM | CC1(C)Cc2cccc(CNc3ccnc(-c4cncc(Cl)c4)n3)c2O1 [Compound 18, [2-(5-Chloro-pyridin-3-yl)-pyrimidin-4-yl]-(2,2-dimethyl-2,3-dihydro-benzofuran-7-ylmethyl)-amine] |

| IC50 | Compound |
| --- | --- |
| > 10 µM | Clc1cncc(-c2nccc(NCc3cccc(Oc4cnccn4)c3)n2)c1 [Compound 19, [2-(5-Chloro-pyridin-3-yl)-pyrimidin-4-yl]-[3-(pyrazin-2-yloxy)-benzyl]-amine] |
| > 10 µM | Clc1cncc(-c2nccc(NCc3ccc(N4CCOCC4)cc3)n2)c1 [Compound 20, [2-(5-Chloro-pyridin-3-yl)-pyrimidin-4-yl]-(4-morpholin-4-yl-benzyl)-amine] |
| 1 to 10 µM | COc1ccc(CNc2ccnc(-c3cncc(F)c3)n2)c(F)c1F [Compound 21, (2,3-Difluoro-4-methoxy-benzyl)-[2-(5-fluoro-pyridin-3-yl)-pyrimidin-4-yl]-amine] |
| > 10 µM | O=C(c1cncc(-c2nccc(NCc3ccc(Cl)cc3F)n2)c1)N1CCOCC1 [Compound 22, {5-[4-(4-Chloro-2-fluoro-benzylamino)-pyrimidin-2-yl]-pyridin-3-yl}-morpholin-4-yl-methanone] |
| > 10 µM | O=C(c1cncc(-c2nccc(NCc3cccc(Oc4cnccn4)c3)n2)c1)N1CCOCC1 [Compound 23, Morpholin-4-yl-(5-{4-[3-(pyrazin-2-yloxy)-benzylamino]-pyrimidin-2-yl}-pyridin-3-yl)-methanone] |
| 1 to 10 µM | COc1ccc(CNc2ccnc(-c3cncc(C(F)(F)F)c3)n2)c(F)c1F [Compound 24, (2,3-Difluoro-4-methoxy-benzyl)-[2-(5-trifluoromethyl-pyridin-3-yl)-pyrimidin-4-yl]-amine] |
| > 10 µM | Fc1ccc(Oc2ccc(CNc3ccnc(-c4cncc(C(F)(F)F)c4)n3)cc2)cc1 [Compound 25, [4-(4-Fluoro-phenoxy)-benzyl]-[2-(5-trifluoromethyl-pyridin-3-yl)-pyrimidin-4-yl]-amine] |
| > 10 µM | CC1(C)Cc2cccc(CNc3ccnc(-c4cncc(C(F)(F)F)c4)n3)c2O1 [Compound 26, (2,2-Dimethyl-2,3-dihydro-benzofuran-7-ylmethyl)-[2-(5-trifluoromethyl-pyridin-3-yl)-pyrimidin-4-yl]-amine] |
| > 10 µM | FC(F)(F)c1cncc(-c2nccc(NCc3cccc(Oc4cnccn4)c3)n2)c1 [Compound 27, [3-(Pyrazin-2-yloxy)-benzyl]-[2-(5-trifluoromethyl-pyridin-3-yl)-pyrimidin-4-yl]-amine] |
| > 10 µM | FC(F)(F)c1cncc(-c2nccc(NCc3ccc(N4CCOCC4)cc3)n2)c1 [Compound 28, (4-Morpholin-4-yl-benzyl)-[2-(5-trifluoromethyl-pyridin-3-yl)-pyrimidin-4-yl]-amine] |
| 1 to 10 µM | FC(F)(F)c1cncc(-c2nccc(NCc3cccc(-n4cccn4)c3)n2)c1 [Compound 29, (3-Pyrazol-1-yl-benzyl)-[2-(5-trifluoromethyl-pyridin-3-yl)-pyrimidin-4-yl]-amine] |
| > 10 µM | FC(F)(F)c1cncc(-c2nccc(NCc3ccc4c(c3)OCCO4)n2)c1 [Compound 30, (2,3-Dihydro-benzo[1,4]dioxin-6-ylmethyl)-[2-(5-trifluoromethyl-pyridin-3-yl)-pyrimidin-4-yl]-amine] |
| > 10 µM | Fc1ccc(Oc2ccc(CNc3ccnc(-c4cncc(Cl)c4)n3)cc2)cc1 [Compound 31, [2-(5-Chloro-pyridin-3-yl)-pyrimidin-4-yl]-[4-(4-fluoro-phenoxy)-benzyl]-amine] |
| < 0.1 µM | Fc1cc(Cl)ccc1CNc1ccnc(-c2cncc(Cl)c2)n1 [Compound 32, (4-Chloro-2-fluoro-benzyl)-[2-(5-chloro-pyridin-3-yl)-pyrimidin-4-yl]-amine] |
| < 0.1 µM | Fc1cncc(-c2nccc(NCc3ccc(Cl)cc3F)n2)c1 [Compound 33, (4-Chloro-2-fluoro-benzyl)-[2-(5-fluoro-pyridin-3-yl)-pyrimidin-4-yl]-amine] |
| > 10 µM | O=C(c1cncc(-c2nccc(NCc3cccc(-n4cccn4)c3)n2)c1)N1CCOCC1 [Compound 34, Morpholin-4-yl-{5-[4-(3-pyrazol-1-yl-benzylamino)-pyrimidin-2-yl]-pyridin-3-yl}-methanone] |
| < 0.1 µM | Fc1cc(Cl)ccc1CNc1ccnc(-c2cncc(C(F)(F)F)c2)n1 [Compound 35, (4-Chloro-2-fluoro-benzyl)-[2-(5-trifluoromethyl-pyridin-3-yl)-pyrimidin-4-yl]-amine] |

Source: patent US9199962B2, “Substituted azaheterocycles for the treatment of cancer” (Merck Patent GmbH, priority 2011, dated 2015)
